Measured values published in PubChem BioAssay AID248 (DTP/NCI, 2004).
Values joined by “and” are separate entries in the source; they are usually repeats but may differ in a detail not shown here. Equal values may be shown once. Toxic doses and inconclusive results are not listed.

System: L1210 leukemia ip in BDF1 mice, survival T/C
Assay: NCI In Vivo Anticancer Drug Screen. Data for tumor model L1210 Leukemia (intraperitoneal) in B6D2F1 (BDF1) mice
Details: endpoint: mean survival time, higher = longer survival
Outline: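 Read-out is survival time, reported as the treated-group measurement over the vehicle-control measurement.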

[1] = dose: 400.0 mg/kg/injection, schedule: Q01DX001 (ip), vehicle: saline
[2] = dose: 100.0 mg/kg/injection, schedule: Q04DX002 (ip), vehicle: saline with Tween-80
[3] = dose: 100.0 mg/kg/injection, schedule: Q04DX002 (ip), vehicle: Klucel (hydroxypropylcellulose) (HPC)
[4] = dose: 200.0 mg/kg/injection, schedule: Q04DX002 (ip), vehicle: Klucel (hydroxypropylcellulose) (HPC)
[5] = dose: 100.0 mg/kg/injection, schedule: Q01DX009 (ip), vehicle: saline
[6] = dose: 400.0 mg/kg/injection, schedule: Q04DX002 (ip), vehicle: Klucel (hydroxypropylcellulose) (HPC)

## CS(=O)(=O)SCc1ccc([N+](=O)[O-])cc1
dose: 15.0 mg/kg/injection, schedule: Q01DX001 (ip), vehicle: carboxymethylcellulose (CMC)
  T/C: 114 % of control
dose: 30.0 mg/kg/injection, schedule: Q01DX001 (ip), vehicle: carboxymethylcellulose (CMC)
  T/C: 101 % of control
dose: 60.0 mg/kg/injection, schedule: Q01DX001 (ip), vehicle: carboxymethylcellulose (CMC)
  T/C: 97 % of control

## S=c1[nH]c2ccccc2o1
dose: 100.0 mg/kg/injection, schedule: Q01DX009 (ip), vehicle: saline with Tween-80
  T/C: 93 % of control
dose: 100.0 mg/kg/injection, schedule: Q04DX003 (ip), vehicle: other
  T/C: 101 % of control
dose: 200.0 mg/kg/injection, schedule: Q01DX009 (ip), vehicle: saline with Tween-80
  T/C: 100 % of control
dose: 200.0 mg/kg/injection, schedule: Q04DX003 (ip), vehicle: other
  T/C: 93 % of control
dose: 400.0 mg/kg/injection, schedule: Q04DX003 (ip), vehicle: other
  T/C: 96 % of control

## C1CNC(NC23CC4CC(CC(C4)C2)C3)=N1
dose: 100.0 mg/kg/injection, schedule: Q01DX009 (ip), vehicle: Klucel (hydroxypropylcellulose) (HPC)
  T/C: 98 % of control

## Fc1ccccc1CSc1ncnc2nc[nH]c12
dose: 40.0 mg/kg/injection, schedule: Q01DX009 (ip), vehicle: saline
  T/C: 115 % of control
dose: 150.0 mg/kg/injection, schedule: Q01DX009 (ip), vehicle: saline
  T/C: 157 % of control
dose: 175.0 mg/kg/injection, schedule: Q01DX001 (ip), vehicle: saline
  T/C: 117 % of control and 118 % of control
dose: 265.0 mg/kg/injection, schedule: Q01DX001 (ip), vehicle: saline
  T/C: 112 % of control and 120 % of control
[1]
  T/C: 122 % of control
dose: 600.0 mg/kg/injection, schedule: Q01DX001 (ip), vehicle: saline
  T/C: 100 % of control

## CC(=O)c1ccc(N=C(N)N=C(N)N)cc1
dose: 75.0 mg/kg/injection, schedule: Q01DX001 (ip), vehicle: carboxymethylcellulose (CMC)
  T/C: 110 % of control
dose: 150.0 mg/kg/injection, schedule: Q01DX001 (ip), vehicle: carboxymethylcellulose (CMC)
  T/C: 93 % of control

## O=S(c1ccccc1)c1ccc2cccccc1-2 (configuration not stated)
dose: 100.0 mg/kg/injection, schedule: Q01DX001 (ip), vehicle: carboxymethylcellulose (CMC)
  T/C: 91 % of control
dose: 200.0 mg/kg/injection, schedule: Q01DX001 (ip), vehicle: carboxymethylcellulose (CMC)
  T/C: 94 % of control
dose: 400.0 mg/kg/injection, schedule: Q01DX001 (ip), vehicle: carboxymethylcellulose (CMC)
  T/C: 100 % of control

## O=C(Nc1ccccc1)OCC(F)(F)F
dose: 100.0 mg/kg/injection, schedule: Q04DX002 (ip), vehicle: gum acacia
  T/C: 105 % of control
dose: 200.0 mg/kg/injection, schedule: Q04DX002 (ip), vehicle: gum acacia
  T/C: 108 % of control
dose: 400.0 mg/kg/injection, schedule: Q04DX002 (ip), vehicle: gum acacia
  T/C: 101 % of control

## O=[N+]([O-])c1ccc(/C=C/c2nccs2)o1
dose: 100.0 mg/kg/injection, schedule: Q04DX003 (ip), vehicle: Klucel (hydroxypropylcellulose) (HPC)
  T/C: 97 % of control
dose: 200.0 mg/kg/injection, schedule: Q04DX003 (ip), vehicle: Klucel (hydroxypropylcellulose) (HPC)
  T/C: 106 % of control
dose: 400.0 mg/kg/injection, schedule: Q04DX003 (ip), vehicle: Klucel (hydroxypropylcellulose) (HPC)
  T/C: 108 % of control

## Cc1ccc(NC(=O)Oc2ccc(Br)cc2Br)c(Cl)c1
dose: 25.0 mg/kg/injection, schedule: Q01DX009 (ip), vehicle: saline with Tween-80
  T/C: 104 % of control and 106 % of control
dose: 50.0 mg/kg/injection, schedule: Q01DX009 (ip), vehicle: saline with Tween-80
  T/C: 101 % of control and 105 % of control
[2]
  T/C: 101 % of control and 107 % of control
dose: 100.0 mg/kg/injection, schedule: Q04DX003 (ip), vehicle: saline with Tween-80
  T/C: 103 % of control
dose: 200.0 mg/kg/injection, schedule: Q04DX002 (ip), vehicle: saline with Tween-80
  T/C: 97 % of control and 101 % of control
dose: 200.0 mg/kg/injection, schedule: Q04DX003 (ip), vehicle: saline with Tween-80
  T/C: 113 % of control
dose: 400.0 mg/kg/injection, schedule: Q04DX002 (ip), vehicle: saline with Tween-80
  T/C: 103 % of control and 111 % of control
dose: 400.0 mg/kg/injection, schedule: Q04DX003 (ip), vehicle: saline with Tween-80
  T/C: 103 % of control

## COc1ccc2c3c(ccc2c1)C1=C(C(=O)O)CC(=O)C1(C)CC3 (configuration not stated)
dose: 100.0 mg/kg/injection, schedule: Q01DX009 (sc), vehicle: steriod suspending solution
  T/C: 114 % of control
dose: 100.0 mg/kg/injection, schedule: Q04DX003 (sc), vehicle: steriod suspending solution
  T/C: 117 % of control
dose: 200.0 mg/kg/injection, schedule: Q01DX009 (sc), vehicle: steriod suspending solution
  T/C: 101 % of control
dose: 200.0 mg/kg/injection, schedule: Q04DX003 (sc), vehicle: steriod suspending solution
  T/C: 97 % of control
dose: 400.0 mg/kg/injection, schedule: Q01DX009 (sc), vehicle: steriod suspending solution
  T/C: 95 % of control
dose: 400.0 mg/kg/injection, schedule: Q04DX003 (sc), vehicle: steriod suspending solution
  T/C: 101 % of control

## Cc1cnc(/N=C(\N)N2CCOCC2)nc1-c1ccccc1O
[3]
  T/C: 88 % of control
[4]
  T/C: 88 % of control

## CC(=O)OCC1OC(n2cnc([N+](=O)[O-])c2C#N)C(OC(C)=O)C1OC(C)=O (configuration not stated)
dose: 50.0 mg/kg/injection, schedule: Q01DX001 (ip), vehicle: saline
  T/C: 102 % of control
dose: 100.0 mg/kg/injection, schedule: Q01DX001 (ip), vehicle: saline
  T/C: 108 % of control
dose: 200.0 mg/kg/injection, schedule: Q01DX001 (ip), vehicle: saline
  T/C: 102 % of control
[1]
  T/C: 92 % of control

## O=C(O)CNC(=O)c1ccc(C(=O)NCC(=O)O)cc1
dose: 100.0 mg/kg/injection, schedule: Q04DX003 (ip), vehicle: saline
  T/C: 106 % of control
dose: 200.0 mg/kg/injection, schedule: Q04DX003 (ip), vehicle: saline
  T/C: 105 % of control
dose: 400.0 mg/kg/injection, schedule: Q04DX003 (ip), vehicle: saline
  T/C: 97 % of control

## CCc1cc(CC)c(S(=O)(=O)O)c(CC)c1CC
[5]
  T/C: 90 % of control

## CC1(C)OC2OC(/C=C\C=O)C3OC(C)(C)OC3C2O1 (configuration not stated)
dose: 100.0 mg/kg/injection, schedule: Q04DX003 (ip), vehicle: acetone
  T/C: 100 % of control
dose: 200.0 mg/kg/injection, schedule: Q04DX003 (ip), vehicle: acetone
  T/C: 104 % of control

## CN(NC(=O)CC(=O)NN(C)C(=S)c1ccccc1)C(=S)c1ccccc1
dose: 25.0 mg/kg/injection, schedule: Q01DX009 (ip), vehicle: gum acacia
  T/C: 109 % of control
dose: 50.0 mg/kg/injection, schedule: Q01DX009 (ip), vehicle: gum acacia
  T/C: 104 % of control
dose: 100.0 mg/kg/injection, schedule: Q01DX009 (ip), vehicle: gum acacia
  T/C: 100 % of control and 92 % of control
dose: 100.0 mg/kg/injection, schedule: Q04DX003 (ip), vehicle: gum acacia
  T/C: 90 % of control
dose: 200.0 mg/kg/injection, schedule: Q04DX003 (ip), vehicle: gum acacia
  T/C: 97 % of control
dose: 400.0 mg/kg/injection, schedule: Q04DX003 (ip), vehicle: gum acacia
  T/C: 92 % of control

## CCCCCCCCCCCCCCCCCCNC(=O)Nc1ccc(OC)cc1OC
[3]
  T/C: 101 % of control
[4]
  T/C: 90 % of control
[6]
  T/C: 90 % of control

## COc1ccc(NC(=O)Nc2cccc([N+](=O)[O-])c2OC)cc1
dose: 25.0 mg/kg/injection, schedule: Q04DX002 (ip), vehicle: saline with Tween-80
  T/C: 93 % of control
dose: 50.0 mg/kg/injection, schedule: Q04DX002 (ip), vehicle: saline with Tween-80
  T/C: 96 % of control
[2]
  T/C: 89 % of control

## O=C(NCc1ccncc1)Nc1ccccc1
[3]
  T/C: 103 % of control
[4]
  T/C: 103 % of control
[6]
  T/C: 106 % of control

## CCCCCCCCN(C)/N=N/c1nc[nH]c1C(=O)OCC
dose: 50.0 mg/kg/injection, schedule: Q01DX001 (ip), vehicle: other
  T/C: 94 % of control
dose: 100.0 mg/kg/injection, schedule: Q01DX001 (ip), vehicle: other
  T/C: 105 % of control
dose: 200.0 mg/kg/injection, schedule: Q01DX001 (ip), vehicle: other
  T/C: 113 % of control
dose: 400.0 mg/kg/injection, schedule: Q01DX001 (ip), vehicle: other
  T/C: 105 % of control

## CCSc1nc(N)nc2c1ncn2C
dose: 100.0 mg/kg/injection, schedule: Q01DX001 (ip), vehicle: acetone
  T/C: 94 % of control
dose: 200.0 mg/kg/injection, schedule: Q01DX001 (ip), vehicle: acetone
  T/C: 91 % of control
dose: 400.0 mg/kg/injection, schedule: Q01DX001 (ip), vehicle: acetone
  T/C: 90 % of control

## CN(C)C(N)=S
[5]
  T/C: 91 % of control
dose: 200.0 mg/kg/injection, schedule: Q01DX009 (ip), vehicle: saline
  T/C: 100 % of control
dose: 400.0 mg/kg/injection, schedule: Q01DX009 (ip), vehicle: saline
  T/C: 100 % of control
